This data set deals with IRF4. Conditions: ASO.

Several values for one entry are separate records, joined by “and”; a condition that tells them apart may be missing. Equal entries are not always repeated. After the bases stand the sugars from the 5' end (letter, count) and the backbone: PS all phosphorothioate, else s phosphorothioate and o phosphodiester by linkage. Methylation of C is not given here. e = 2'-O-(2-methoxyethyl) (MOE); k = constrained ethyl (cEt); d = 2'-deoxy (DNA)

As to CCTGGGACTCAGGTGG (sugars k3 d10 k3, PS), the target mRNA inhibition was 6% (MM.1R, 0.074 µM); -6% (MM.1R, 0.222 µM); 0% (MM.1R, 0.666 µM); 13% (MM.1R, 2 µM); 9% (SK-MEL-28, 0.185 µM); 59% (SK-MEL-28, 4 µM). In addition, the target mRNA inhibition reads like this: (SK-MEL-28, 5 µM) 64%; (SK-MEL-28, 15 µM) 91%.

AACGGAAGTTTACACT (sugars k3 d10 k3, PS): the target mRNA inhibition (SK-MEL-28, 4 µM) was 59%.

Regarding TAAACAAGATGAATCC (sugars k3 d10 k3, PS), the target mRNA inhibition (SK-MEL-28, 4 µM) is 44%.

As to CCGAGATATAAATAGC (sugars k3 d10 k3, PS), the target mRNA inhibition came out at 3% (MM.1R, 0.0625 µM); 7% (MM.1R, 0.074 µM); 9% (MM.1R, 0.222 µM); 12% (MM.1R, 0.25 µM); 22% (MM.1R, 0.666 µM); 25% (MM.1R, 1 µM). In addition, the target mRNA inhibition (MM.1R, 2 µM) came out at 38%; the target mRNA inhibition (MM.1R, 4 µM) stood at 52%; the target mRNA inhibition (SK-MEL-28, 4 µM) stood at 61%.

Turning to AGCTGAGGGCAGCGGT (sugars k3 d10 k3, PS), the target mRNA inhibition (SK-MEL-28, 4 µM) is -7%.

For the sequence CTAGACAGAGAGTCCG (sugars k3 d10 k3, PS), the target mRNA inhibition (MM.1R, 1 µM) was found to be 5%.

Regarding GGAGTGATCTCTGTGG (sugars k3 d10 k3, PS), the target mRNA inhibition (SK-MEL-28, 4 µM) stood at 68%.

On to TTATCATCCGAAAAGA (sugars k3 d10 k3, PS), for which the target mRNA inhibition (MM.1R, 1 µM) was 4%.

On to ACGGACGAACGCGCAA (sugars k3 d10 k3, PS), for which the target mRNA inhibition (MM.1R, 1 µM) is -7%.

Take GCAACACGGGAATTTC (sugars k3 d10 k3, PS): the target mRNA inhibition (SK-MEL-28, 4 µM) was 66% and 74%.

For CTTACTAGGTGCTTGT (sugars k3 d10 k3, PS), the target mRNA inhibition (SK-MEL-28, 4 µM) was found to be 38%.

In the case of CAGCACTCAGATTCTA (sugars k3 d10 k3, PS), the target mRNA inhibition (SK-MEL-28, 4 µM) was determined as 12%.

With CCCATGAACACCATGC (sugars k3 d10 k3, PS), the target mRNA inhibition (SK-MEL-28, 4 µM) came to 32%.

In the case of “AGTTGTAAATGAGTCG (sugars e1 k2 d9 k2 e2, PS)”, the target mRNA inhibition (MM.1R, 1 µM) worked out at 49%.

Turning to CATAATCCAGTATCTG (sugars k3 d10 k3, PS), the target mRNA inhibition (SK-MEL-28, 4 µM) came out at 18%.

With TTACTAACTGGCTTCC (sugars k3 d10 k3, PS), for the setting “SK-MEL-28, 4 µM”, the target mRNA inhibition came to 49%.

As to CCACGAGGCCCCGGAG (sugars k3 d10 k3, PS), the target mRNA inhibition (MM.1R, 1 µM) is 4%.

As to TTTTATATATGACGAC (sugars k3 d10 k3, PS), the target mRNA inhibition (SK-MEL-28, 4 µM) came to 34%.

For GCATTATCTACCTCAG (sugars k3 d10 k3, PS), the target mRNA inhibition (SK-MEL-28, 4 µM) amounted to 69%.

GAATAAACACCCCTTC (sugars k3 d10 k3, PS): for the setting “SK-MEL-28, 4 µM”, the target mRNA inhibition came to 44%.

Take “CAGTTGTAAATGAGTC (sugars kddddddddddkekek, PS)”: the target mRNA inhibition is 16% (H929, 0.00067 µM); 25% (H929, 0.002 µM); 52% (H929, 0.00667 µM); 68% (H929, 0.02 µM); 38% (H929, 0.04 µM); 77% and 89% (KMS11, 0.2 µM). Besides, the target mRNA inhibition worked out at 18% (MM.1R, 0.074 µM); 44% (MM.1R, 0.222 µM); 63% (MM.1R, 0.666 µM); 65% (MM.1R, 1 µM); 85% (MM.1R, 2 µM).

Consider CCAAGCCTAGAGGTGC (sugars k3 d10 k3, PS), for which the target mRNA inhibition (MM.1R, 1 µM) came out at 21%.

Turning to CCATATTGGAAACCAG (sugars k3 d10 k3, PS), for the setting “MM.1R, 1 µM”, the target mRNA inhibition stood at 10%.

For the sequence ATCTGATCCGGACTCT (sugars k3 d10 k3, PS), where the note is “SK-MEL-28, 4 µM”, the target mRNA inhibition worked out at 9%.

ACTAGCAGGGCACGCT (sugars k3 d10 k3, PS): under “SK-MEL-28, 4 µM”, the target mRNA inhibition turned out to be 38%.

On to GACAGATGACATGCTT (sugars k3 d10 k3, PS), for which the target mRNA inhibition (SK-MEL-28, 4 µM) was found to be 9%.

Take CCCCATATACATTGAG (sugars k3 d10 k3, PS): the target mRNA inhibition (SK-MEL-28, 4 µM) was 37%.

In the case of GTGGAAACGAGAACGC (sugars k3 d10 k3, PS), the target mRNA inhibition (SK-MEL-28, 4 µM) came to 3%.

Source of the values: the OligoGym collection.
